Test results reported in patent US10562887B2, “Triazolones and tetrazolones as inhibitors of ROCK” (BRISTOL-MYERS SQUIBB COMPANY, priority 2016, dated 2020).

What follows are compounds tested against ROCK2 (Homo sapiens (Human), UniProt O75116) (assay: ROCK2 assay (peptide phosphorylation, LABCHIP 3000 Reader)). Conditions: 5 μM ATP, 1.5 μM peptide substrate.
Sequence of ROCK2 (O75116 whole entry, species assumed): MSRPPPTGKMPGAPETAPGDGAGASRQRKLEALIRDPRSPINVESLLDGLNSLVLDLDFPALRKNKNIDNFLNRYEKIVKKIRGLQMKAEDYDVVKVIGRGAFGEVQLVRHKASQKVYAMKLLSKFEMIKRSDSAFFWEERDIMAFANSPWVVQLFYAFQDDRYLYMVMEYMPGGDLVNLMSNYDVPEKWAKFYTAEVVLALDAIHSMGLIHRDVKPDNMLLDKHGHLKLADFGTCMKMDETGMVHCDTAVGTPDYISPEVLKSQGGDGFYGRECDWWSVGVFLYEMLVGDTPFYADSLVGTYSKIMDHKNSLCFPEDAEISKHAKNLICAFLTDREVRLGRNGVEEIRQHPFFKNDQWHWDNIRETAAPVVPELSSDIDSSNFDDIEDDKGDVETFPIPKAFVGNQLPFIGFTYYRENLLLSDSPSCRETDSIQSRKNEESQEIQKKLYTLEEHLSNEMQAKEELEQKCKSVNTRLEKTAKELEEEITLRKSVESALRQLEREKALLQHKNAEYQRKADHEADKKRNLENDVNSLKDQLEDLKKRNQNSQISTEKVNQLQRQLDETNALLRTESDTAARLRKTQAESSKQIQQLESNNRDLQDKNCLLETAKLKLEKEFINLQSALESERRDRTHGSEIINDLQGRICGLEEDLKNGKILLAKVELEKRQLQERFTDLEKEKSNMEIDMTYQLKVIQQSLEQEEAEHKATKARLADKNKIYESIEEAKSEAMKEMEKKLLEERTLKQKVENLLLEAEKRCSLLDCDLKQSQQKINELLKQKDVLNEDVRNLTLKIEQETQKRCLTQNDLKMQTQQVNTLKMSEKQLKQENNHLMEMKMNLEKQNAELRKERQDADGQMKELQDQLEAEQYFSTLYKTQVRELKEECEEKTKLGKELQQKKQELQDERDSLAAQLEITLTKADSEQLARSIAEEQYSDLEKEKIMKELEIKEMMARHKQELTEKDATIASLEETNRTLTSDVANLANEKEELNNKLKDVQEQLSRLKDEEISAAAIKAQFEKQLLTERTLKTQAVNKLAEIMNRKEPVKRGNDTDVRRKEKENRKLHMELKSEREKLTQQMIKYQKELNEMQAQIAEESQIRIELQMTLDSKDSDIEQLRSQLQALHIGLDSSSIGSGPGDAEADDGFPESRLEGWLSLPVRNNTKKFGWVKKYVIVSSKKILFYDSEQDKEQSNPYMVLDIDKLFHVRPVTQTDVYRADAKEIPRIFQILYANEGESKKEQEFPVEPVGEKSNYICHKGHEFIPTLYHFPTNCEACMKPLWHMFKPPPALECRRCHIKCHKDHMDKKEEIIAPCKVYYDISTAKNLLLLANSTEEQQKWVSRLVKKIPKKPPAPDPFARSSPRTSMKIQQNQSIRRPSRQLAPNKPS
Format: biochemical
Description: The effectiveness of compounds of the present invention as ROCK inhibitors can be determined in a 30 μL, assay containing 20 mM HEPES, pH 7.5, 20 mM MgCl2, 0.015% Brij-35, 4 mM DTT, 5 μM ATP and 1.5 μM peptide substrate (FITC-AHA-AKRRRLSSLRA-OH). Compounds were dissolved in DMSO so that the final concentration of DMSO was <2%, and the reaction was initiated with Rho kinase variants. After incubation, the reaction was terminated by the addition of EDTA and the phosphorylated and non-phosphorylated peptides separated using a LABCHIP® 3000 Reader (Caliper Life Sciences). […] Compounds were tested in dose-response format, and the inhibition of kinase activity was calculated at each concentration of compound. The inhibition data were fit using a curve-fitting program to determine the IC50; i.e., the concentration of compound required to inhibit 50% of kinase activity.
Representative Examples were tested in the ROCK2 assay described above and found having ROCK2 inhibitory activity.
With `COc1cc(-n2ncn(Cc3ccccc3Cl)c2=O)ccc1-c1cn[nH]c1` [Example 32, 4-(2-chlorobenzyl)-1-(3-methoxy-4-(1H-pyrazol-4-yl)phenyl)-1H-1,2,4-triazol-5(4H)-one] the IC50 was 5 to 50 nM. `O=c1n(Cc2c(F)cccc2F)cnn1-c1ccc(-c2cn[nH]c2)cc1` [Example 33, 1-(4-(1H-pyrazol-4-yl)phenyl)-4-(2,6-difluorobenzyl)-1H-1,2,4-triazol-5(4H)-one] showed an IC50 of 5 to 50 nM. `N#Cc1cccc(Cn2cnn(-c3ccc(-c4cn[nH]c4)cc3)c2=O)c1` [Example 34, 3-((1-(4-(1H-pyrazol-4-yl)phenyl)-5-oxo-1H-1,2,4-triazol-4(5H)-yl)methyl)benzonitrile] was tested, and the IC50 was 50 to 250 nM. `COc1cc(-n2ncn(Cc3cccc(C#N)c3)c2=O)ccc1-c1cn[nH]c1` [Example 35, 3-((1-(3-methoxy-4-(1H-pyrazol-4-yl)phenyl)-5-oxo-1H-1,2,4-triazol-4(5H)-yl)methyl)benzonitrile] was tested, and the IC50 was 50 to 250 nM. In the case of `COc1cc(-n2ncn(Cc3cc(F)cc(F)c3)c2=O)ccc1-c1cn[nH]c1` [Example 36, 4-(3,5-difluorobenzyl)-1-(3-methoxy-4-(1H-pyrazol-4-yl)phenyl)-1H-1,2,4-triazol-5(4H)-one], the IC50 is reported as 5 to 50 nM. Compound `COc1cc(-n2ncn(Cc3cccc(OC(F)F)c3)c2=O)ccc1-c1cn[nH]c1` [Example 37, 4-(3-(difluoromethoxy)benzyl)-1-(3-methoxy-4-(1H-pyrazol-4-yl)phenyl)-1H-1,2,4-triazol-5(4H)-one] has an IC50 of 5 to 50 nM. With `COc1cc(-n2ncn(Cc3ccc(F)cc3)c2=O)ccc1-c1cn[nH]c1` [Example 38, 4-(4-fluorobenzyl)-1-(3-methoxy-4-(1H-pyrazol-4-yl)phenyl)-1H-1,2,4-triazol-5(4H)-one] the IC50 was 50 to 250 nM. `COc1cc(-n2ncn(Cc3c(F)cccc3F)c2=O)ccc1-c1cn[nH]c1` [Example 39, 4-(2,6-difluorobenzyl)-1-(3-methoxy-4-(1H-pyrazol-4-yl)phenyl)-1H-1,2,4-triazol-5(4H)-one] was tested, and the IC50 was 5 to 50 nM. `CCc1cc(-n2ncn(Cc3cc(F)cc(OC)c3)c2=O)ccc1-c1cn[nH]c1` [Example 40, 1-(3-ethyl-4-(1H-pyrazol-4-yl)phenyl)-4-(3-fluoro-5-methoxybenzyl)-1H-1,2,4-triazol-5(4H)-one] showed an IC50 of 5 to 50 nM. With `CCc1cc(-n2ncn(Cc3cccc(C#N)c3)c2=O)ccc1-c1cn[nH]c1` [Example 41, 3-((1-(3-ethyl-4-(1H-pyrazol-4-yl)phenyl)-5-oxo-1H-1,2,4-triazol-4(5H)-yl)methyl)benzonitrile] the IC50 was 250 to 2000 nM. `CCc1cc(-n2ncn(Cc3ccccc3F)c2=O)ccc1-c1cn[nH]c1` [Example 42, 1-(3-ethyl-4-(1H-pyrazol-4-yl)phenyl)-4-(2-fluorobenzyl)-1H-1,2,4-triazol-5(4H)-one] gave an IC50 of 250 to 2000 nM. For `CCc1cc(-n2ncn(Cc3ccc(F)cc3)c2=O)ccc1-c1cn[nH]c1` [Example 43, 1-(3-ethyl-4-(1H-pyrazol-4-yl)phenyl)-4-(4-fluorobenzyl)-1H-1,2,4-triazol-5(4H)-one], the IC50 was 250 to 2000 nM. `CCc1cc(-n2ncn(Cc3cc(F)cc(F)c3)c2=O)ccc1-c1cn[nH]c1` [Example 44, 4-(3,5-difluorobenzyl)-1-(3-ethyl-4-(1H-pyrazol-4-yl)phenyl)-1H-1,2,4-triazol-5(4H)-one] was tested, and the IC50 was 5 to 50 nM. Compound `CCc1cc(-n2ncn(Cc3cccc(OC)c3)c2=O)ccc1-c1cn[nH]c1` [Example 45, 1-(3-ethyl-4-(1H-pyrazol-4-yl)phenyl)-4-(3-methoxybenzyl)-1H-1,2,4-triazol-5(4H)-one] has an IC50 of 5 to 50 nM. In the case of `CCc1cc(-n2ncn(Cc3cccc(OC(F)F)c3)c2=O)ccc1-c1cn[nH]c1` [Example 46, 4-(3-(difluoromethoxy)benzyl)-1-(3-ethyl-4-(1H-pyrazol-4-yl)phenyl)-1H-1,2,4-triazol-5(4H)-one], the IC50 is reported as 50 to 250 nM. `COc1cc(Cn2cnn(-c3ccc(-c4cn[nH]c4)cc3)c2=O)cc(OC)c1` [Example 49, 1-(4-(1H-pyrazol-4-yl)phenyl)-4-(3,5-dimethoxybenzyl)-1H-1,2,4-triazol-5(4H)-one] showed an IC50 of 250 to 2000 nM. `COc1cc(Cn2cnn(-c3ccc(-c4cn[nH]c4)cc3)c2=O)ccc1F` [Example 50, 4-[(4-fluoro-3-methoxyphenyl)methyl]-1-[4-(1H-pyrazol-4-yl)phenyl]-4,5-dihydro-1H-1,2,4-triazol-5-one] showed an IC50 of less than 5 nM. `COc1cccc(Cn2cnn(-c3ccc(-c4cn[nH]c4)cc3)c2=O)c1F` [Example 51, 1-(4-(1H-pyrazol-4-yl)phenyl)-4-(2-fluoro-3-methoxybenzyl)-1H-1,2,4-triazol-5(4H)-one] gave an IC50 of 5 to 50 nM. `COc1ccc(F)cc1Cn1cnn(-c2ccc(-c3cn[nH]c3)cc2)c1=O` [Example 52, 1-(4-(1H-pyrazol-4-yl)phenyl)-4-(5-fluoro-2-methoxybenzyl)-1H-1,2,4-triazol-5(4H)-one] showed an IC50 of 250 to 2000 nM. For `COc1ccc(Cn2cnn(-c3ccc(-c4cn[nH]c4)cc3)c2=O)cc1F` [Example 53, 1-(4-(1H-pyrazol-4-yl)phenyl)-4-(3-fluoro-4-methoxybenzyl)-1H-1,2,4-triazol-5(4H)-one], the IC50 was 250 to 2000 nM. `CCc1cc(-n2ncn(Cc3ccccc3)c2=O)ccc1-c1cn[nH]c1` [Example 54, 4-benzyl-1-(3-ethyl-4-(1H-pyrazol-4-yl)phenyl)-1H-1,2,4-triazol-5(4H)-one] was tested, and the IC50 was 50 to 250 nM. `CCc1cc(-n2ncn(Cc3cccc(F)c3)c2=O)ccc1-c1cn[nH]c1` [Example 55, 1-(3-ethyl-4-(1H-pyrazol-4-yl)phenyl)-4-(3-fluorobenzyl)-1H-1,2,4-triazol-5(4H)-one] showed an IC50 of 5 to 50 nM. Work on `CCc1cc(-n2ncn(Cc3c(F)cccc3F)c2=O)ccc1-c1cn[nH]c1` [Example 57, 4-(2,6-difluorobenzyl)-1-(3-ethyl-4-(1H-pyrazol-4-yl)phenyl)-1H-1,2,4-triazol-5(4H)-one] yielded an IC50 of 250 to 2000 nM. Work on `CCc1cc(-n2ncn(C(C)c3ccccc3)c2=O)ccc1-c1cn[nH]c1` (centres unmarked) [Example 58, 1-(3-ethyl-4-(1H-pyrazol-4-yl)phenyl)-4-(1-phenylethyl)-1H-1,2,4-triazol-5(4H)-one] yielded an IC50 of 5 to 50 nM. Work on `Cc1nn(Cc2ccccc2)c(=O)n1-c1ccc(-c2cn[nH]c2)cc1` [Example 59, 4-(4-(1H-pyrazol-4-yl)phenyl)-1-benzyl-3-methyl-1H-1,2,4-triazol-5(4H)-one] yielded an IC50 of 250 to 2000 nM. `COc1cc(-n2c(C)nn(Cc3ccccc3)c2=O)ccc1-c1cn[nH]c1` [Example 60, 1-benzyl-4-(3-methoxy-4-(1H-pyrazol-4-yl)phenyl)-3-methyl-1H-1,2,4-triazol-5(4H)-one] showed an IC50 of 250 to 2000 nM. For `COc1cccc(Cn2nc(C)n(-c3ccc(-c4cn[nH]c4)c(OC)c3)c2=O)c1` [Example 61, 4-(3-methoxy-4-(1H-pyrazol-4-yl)phenyl)-1-(3-methoxybenzyl)-3-methyl-1H-1,2,4-triazol-5(4H)-one], the IC50 was 50 to 250 nM. In the case of `COc1cc(-n2c(C)nn(C(C)c3ccccc3)c2=O)ccc1-c1cn[nH]c1` (centres unmarked) [Example 62, 4-(3-methoxy-4-(1H-pyrazol-4-yl)phenyl)-3-methyl-1-(1-phenylethyl)-1H-1,2,4-triazol-5(4H)-one], the IC50 is reported as 250 to 2000 nM. With `COc1cc(-c2cn[nH]c2)ccc1-n1c(C)nn(Cc2ccccc2)c1=O` [Example 63, 1-benzyl-4-(2-methoxy-4-(1H-pyrazol-4-yl)phenyl)-3-methyl-1H-1,2,4-triazol-5(4H)-one] the IC50 was 250 to 2000 nM.
